According to US20210323950A1, “HERBICIDALLY ACTIVE BICYCLIC BENZOYLPYRAZOLES” (Bayer Aktiengesellschaft, priority 2018, published 2021):

Tests used:
Type in all cases: in vivo
[1] = tested on: Amaranthus retroflexus (AMARE); assay: Pre-emergence herbicidal action against AMARE; conditions: scored visually after about 3 weeks vs untreated controls
Description: (§1) AMARE: Amaranthus retroflexus 1. Pre-Emergence Herbicidal Action and Crop Plant Compatibility Seeds of monocotyledonous and dicotyledonous weed plants and crop plants are placed in plastic or organic planting pots and covered with soil. The compounds of the invention, formulated in the form of wettable powders (WP) or as emulsion concentrates (EC), are then applied onto the surface of the covering soil as aqueous suspension or emulsion with addition of 0.5% additive at a water application rate of […] (converted). After the treatment, the pots are placed in a greenhouse and kept under good growth conditions for the trial plants. After about 3 weeks, the effect of the preparations is scored visually in comparison with untreated controls as percentages. The tables below show the herbicidal activity of numerous compounds according to the invention against important harmful plants. For example, 100% activity=the plants have died, 0% activity=like control plants.

[2] = tested on: Echinochloa crus-galli (ECHCG); assay: Post-emergence herbicidal action against ECHCG; conditions: 20 g/ha, post-emergence at one-leaf stage, rated visually after about 3 weeks vs untreated controls
Protocol: (§2) ECHCG: Echinochloa crus-galli 2. Post-Emergence Herbicidal Action and Crop Plant Compatibility Seeds of monocotyledonous and dicotyledonous weeds and crop plants are placed in sandy loam in plastic or organic planting pots, covered with soil and cultivated in a greenhouse under controlled growth conditions. 2 to 3 weeks after sowing, the test plants are treated at the one-leaf stage. The compounds of the invention, formulated in the form of wettable powders (WP) or as emulsion concentrates (EC), are then sprayed onto the green parts of the plants as aqueous suspension or emulsion with addition of 0.5% additive at a water application rate of […] (converted). After the test plants had been kept in the greenhouse under optimum growth conditions for about 3 weeks, the activity of the preparations is rated visually in comparison to untreated controls. The tables below show the herbicidal activity of numerous compounds according to the invention against important harmful plants. For example, 100% activity=the plants have died, 0% activity=like control plants.

Setaria viridis (SETVI) = assay: Post-emergence herbicidal action against SETVI; conditions: 20 g/ha, post-emergence at one-leaf stage, rated visually after about 3 weeks vs untreated controls
Protocol: as §2, with “SETVI: Setaria viridis” for “ECHCG: Echinochloa crus-galli”

[3] = tested on: Abutilon theophrasti (ABUTH); assay: Post-emergence herbicidal action against ABUTH; conditions: 20 g/ha, post-emergence at one-leaf stage, rated visually after about 3 weeks vs untreated controls
Protocol: as §2, with “ABUTH: Abutilon theophrasti” for “ECHCG: Echinochloa crus-galli”

Stellaria media (STEME) [4] = assay: Post-emergence herbicidal action against STEME; conditions: 20 g/ha, post-emergence at one-leaf stage, rated visually after about 3 weeks vs untreated controls
Protocol: as §2, with “STEME: Stellaria media” for “ECHCG: Echinochloa crus-galli”

Viola tricolor (VIOTR) = assay: Post-emergence herbicidal action against VIOTR; conditions: 20 g/ha, post-emergence at one-leaf stage, rated visually after about 3 weeks vs untreated controls
Protocol: as §2, with “VIOTR: Viola tricolor” for “ECHCG: Echinochloa crus-galli”

Stellaria media (STEME) [5] = assay: Pre-emergence herbicidal action against STEME; conditions: 80 g/ha, scored visually after about 3 weeks vs untreated controls
Description: as §1, with “STEME: Stellaria media” for “AMARE: Amaranthus retroflexus”

[6] = tested on: Amaranthus retroflexus (AMARE); assay: Post-emergence herbicidal action against AMARE; conditions: 20 g/ha, post-emergence at one-leaf stage, rated visually after about 3 weeks vs untreated controls
Protocol: as §2, with “AMARE: Amaranthus retroflexus” for “ECHCG: Echinochloa crus-galli”

Veronica persica (VERPE) [7] = assay: Pre-emergence herbicidal action against VERPE; conditions: 80 g/ha, scored visually after about 3 weeks vs untreated controls
Description: as §1, with “VERPE: Veronica persica” for “AMARE: Amaranthus retroflexus”

Veronica persica (VERPE) [8] = assay: Post-emergence herbicidal action against VERPE; conditions: 20 g/ha, post-emergence at one-leaf stage, rated visually after about 3 weeks vs untreated controls
Protocol: as §2, with “VERPE: Veronica persica” for “ECHCG: Echinochloa crus-galli”

Row | Compound | Pre-emergence action against AMARE ([1]; 320 g/ha) | Post-emergence action against ECHCG [2] | Post-emergence action against SETVI (Setaria viridis (SETVI)) | Post-emergence action against ABUTH [3] | Post-emergence action against STEME (Stellaria media (STEME) [4]) | Post-emergence action against VIOTR (Viola tricolor (VIOTR)) | Pre-emergence action against AMARE ([1]; 80 g/ha) | Pre-emergence action against STEME (Stellaria media (STEME) [5]) | Post-emergence action against AMARE [6] | Pre-emergence action against VERPE (Veronica persica (VERPE) [7]) | Post-emergence action against VERPE (Veronica persica (VERPE) [8])
1 | CCn1ncc(C(=O)c2ccc(C(F)(F)F)c3c2OCS3)c1O [Example 1-18] | 100% | 80% | 80% | 80% | 90% | 100% |  |  |  |  | 
2 | Cc1nn(C)c(O)c1C(=O)c1ccc(C(F)(F)F)c2c1SCS2 [Example 1-68] |  | 80% |  |  |  | 80% | 100% | 100% | 90% |  | 
3 | Cn1ncc(C(=O)c2ccc(C(F)(F)F)c3c2SCS3(=O)=O)c1O [Example 1-85] |  |  |  |  | 80% |  | 100% | 100% | 90% | 90% | 80%
4 | Cn1nc(CCC(F)(F)F)c(C(=O)c2ccc(C(F)(F)F)c3c2OCS3)c1O [Example 1-127] |  |  |  |  |  | 80% |  |  |  |  | 
